According to patent US11873298B2, “Compounds and uses thereof” (JANSSEN PHARMACEUTICA NV, priority 2017, dated 2024):
pIC50: −log10 of the molar value.

Biological target: T1, SCD5 (Homo sapiens, UniProt Q86SK9)
T1 construct: host or cells: S. cerevisiae ole1Δ strain (W303 pdr1Δ pdr3Δ background), plasmid pRS316 with TDH3 promoter and CYC1 terminator
T1 sequence (Q86SK9 1-330): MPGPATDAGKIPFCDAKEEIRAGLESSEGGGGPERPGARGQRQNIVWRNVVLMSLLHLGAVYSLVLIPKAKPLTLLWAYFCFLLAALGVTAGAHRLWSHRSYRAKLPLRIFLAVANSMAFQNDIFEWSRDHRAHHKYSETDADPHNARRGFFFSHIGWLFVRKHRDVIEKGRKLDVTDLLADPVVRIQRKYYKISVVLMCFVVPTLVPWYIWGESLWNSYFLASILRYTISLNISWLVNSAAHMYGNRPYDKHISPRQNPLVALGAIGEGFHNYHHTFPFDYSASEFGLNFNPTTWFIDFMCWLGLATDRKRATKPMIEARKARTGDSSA
Test: Growth inhibition of humanized yeast strain expressing SCD5 as sole desaturase
Format: cell-based
Settings: yeast strain expressing human SCD5 as sole desaturase; Table 8
Method: Strain oleΔ (yeast ole1 deletion mutant) was constructed by deleting OLE1 with NAT-MX6 in BY4741, amplifying the deletion cassette from the genomic DNA of the resulting strain with primers flanking the ORF by 1000 bp upstream and downstream, transforming the resulting deletion cassette into W303 pdr1Δ pdr3Δ, and plating transformants on YPD media containing G418 (200 μg/mL) and nourseothricin ([…]) with 0.01% TWEEN®-20 and 0.5 mM oleic and palmitoleic acids.
The coding sequence of yeast OLE1 was also cloned into this plasmid). These clones were then transformed into the ole1Δ strain and plated on CSM-Ura media (CSM lacking uracil) with 2% glucose (w/v) and independent colonies were isolated and amplified.
All compound profiling experiments were performed using the same basic protocol. Different genetic backgrounds (e.g., gene deletions) or conditions (e.g., addition of oleic and palmitoleic acid) were replaced as indicated below.
Yeast were cultured using standard techniques in complete synthetic media (CSM) and yeast nitrogen base supplemented with 2% (w/v) carbon source (glucose, raffinose, or galactose) to regulate the expression of the toxic disease protein. An initial starter culture was inoculated in 3 mL CSM-Glucose media and incubated overnight in a 30° C. shaker incubator (225 rpm). Saturated morning cultures were then diluted 1:20 in fresh CSM-Raffinose media and grown for 6 h to an OD600 (optical density) of ˜0.4-0.8 at 30° C. with shaking.
Compound administration was performed in two separate steps. First, 15 μL of CSM-Galactose (induces expression of toxic protein) was dispensed into clear 384 well assay plates using a MULTIDROP™ Combi reagent dispenser. […] The cultures described above were then diluted to a 2× concentration (0.03 and 0.08 for alpha-synuclein and ApoE, final ODsoo of 0.015 and 0.04) in CSM-Galactose. For wild-type and Ole1/SCD1/SCD5 plasmid-containing strains, the 2× cell density was 0.02. […] For 96-well assays (FIGS. 1A and 1B), compound dilutions in DMSO were generated in 96 well plates and 1 μL was manually pipetted into 96 well clear bottom assay plates.
For experiments using a plasmid-borne copy of Ole1, SCD1, or SCD5 (FIGS. 3B, 6, and 7), media lacking uracil (SX-Ura, where X is glucose, raffinose, or galactose), was used for all steps of the compound profiling protocol to ensure its maintenance throughout the assay.
After yeast delivery, assay plates were incubated under humidified conditions at 30° C. for 24 to 40 h. ApoE4 rescue experiments were stopped at 24 h, aSyn experiments at 40 h, Ole1 at 24 h, and SCD1/SCD5 at 40 h. The growth of yeast was monitored by reading the ODsoo of each well using a microplate reader (Perkin Elmer EnVision™).

SMILES | pIC50
CC(C)(C)OC(=O)N1CCC(c2noc(-c3cc(C4CCOC4)c(F)cn3)n2)CC1 (stereo not drawn) [Compound 1284] | 7.70
O=C(C1CCC1)N1CCC(c2noc(-c3cc(C4CCOC4)ccn3)n2)CC1 (stereo not drawn) [Compound 1285] | 6.05
CC(C)(C)OC(=O)N1CCC(c2noc(-c3cc(N4CCC(F)(F)C4)ccn3)n2)CC1 [Compound 1286] | 5.37
CC(C)(C)OC(=O)N1CCC(c2noc(-c3cc(N4CCC(F)(F)C4)c(F)cn3)n2)CC1 [Compound 1287] | 6.47
CC(C)(C)OC(=O)N1CCC(c2noc(-c3cc(N4CCOCC4)ccn3)n2)CC1 [Compound 1288] | 5.26
CC(C)(C)OC(=O)N1CCC(c2noc(-c3ccc(C#N)c(N4CCOCC4)c3)n2)CC1 [Compound 1290] | 6.28
CC(C)C(=O)N1CCC(c2noc(-c3ccc(C#N)c(N4CCOCC4)c3)n2)CC1 [Compound 1291] | 6.19
O=C(OC1CCC1)N1CCC(c2noc(-c3ccn(C4COC4)c(=O)c3)n2)CC1 [Compound 1292] | 4.82
CC(C)(C)OC(=O)N1CCC(c2noc(-c3ccnc(-c4cocn4)c3)n2)CC1 [Compound 1293] | 6.31
Cn1cnc(-c2cc(-c3nc(C4CCN(C(=O)OC(C)(C)C)CC4)no3)ccn2)c1 [Compound 1294] | 6.72
O=C(C1CC1)N1CCC(c2noc(-c3cc(C4CCOC4)c(F)cn3)n2)CC1 (stereo not drawn) [Compound 1296] | 6.60
O=C(C1CCC1)N1CCC(c2noc(-c3cc(C4CCOC4)c(F)cn3)n2)CC1 (stereo not drawn) [Compound 1297] | 6.80
CC1(OC(=O)N2CCC(c3noc(-c4cc(C5CCOC5)c(F)cn4)n3)CC2)CC1 (stereo not drawn) [Compound 1298] | 7.52
CCC(=O)N1CCC(c2noc(-c3cc(N4CCOCC4)ccn3)n2)CC1 [Compound 1300] | 7.22
CC(C)(C)OC(=O)N1CCC(c2noc(-c3cc(F)c(F)c(N4CCOCC4)c3)n2)CC1 [Compound 1301] | 5.29
CC(C)C(=O)N1CCC(c2noc(-c3ccc(F)c(N4CCOC5(CC5)C4)c3)n2)CC1 [Compound 1302] | 6.05
CC(C)(C)OC(=O)N1CCC(c2noc(-c3ccc(F)c(N4CCOC5(CC5)C4)c3)n2)CC1 [Compound 1303] | 7.30
CC(C)C(=O)N1CCC(c2noc(-c3cc(F)c(F)c(N4CCOCC4)c3)n2)CC1 [Compound 1304] | 4.93
CC1CN(c2cc(-c3nc(C4CCN(C(=O)C(C)C)CC4)no3)ccc2F)CC(C)O1 (stereo not drawn) [Compound 1305] | 5.27
CC1(OC(=O)N2CCC(c3noc(-c4ccnc(-c5ccon5)c4)n3)CC2)CC1 [Compound 1306] | 5.27
O=C(OC1CCC1)N1CCC(c2noc(-c3ccc(=O)n(C4COC4)c3)n2)CC1 [Compound 1309] | 5.99
CC1(OC(=O)N2CCC(c3noc(-c4ccnc(-c5cocn5)c4)n3)CC2)CC1 [Compound 1310] | 6.33
CCC(=O)N1CCC(c2noc(-c3cc(N4CCC(F)(F)C4)c(F)cn3)n2)CC1 [Compound 1311] | 5.11
O=C(OC1CCC1)N1CCC(c2noc(-c3cc(C4CCOC4)ncn3)n2)CC1 (stereo not drawn) [Compound 1312] | 7.70
